The values below come from paper PMC3715397 (Bioorganic & medicinal chemistry, 2013).

Entries after “also recorded” stand apart in the source; their conditions may differ.

The target in the first experiment is M. ramosa APAH (Mycoplana ramosa, UniProt Q48935). The experiment can be described thus: Fluorimetric APAH inhibition assay.
Sequence of M. ramosa APAH (Q48935 whole entry): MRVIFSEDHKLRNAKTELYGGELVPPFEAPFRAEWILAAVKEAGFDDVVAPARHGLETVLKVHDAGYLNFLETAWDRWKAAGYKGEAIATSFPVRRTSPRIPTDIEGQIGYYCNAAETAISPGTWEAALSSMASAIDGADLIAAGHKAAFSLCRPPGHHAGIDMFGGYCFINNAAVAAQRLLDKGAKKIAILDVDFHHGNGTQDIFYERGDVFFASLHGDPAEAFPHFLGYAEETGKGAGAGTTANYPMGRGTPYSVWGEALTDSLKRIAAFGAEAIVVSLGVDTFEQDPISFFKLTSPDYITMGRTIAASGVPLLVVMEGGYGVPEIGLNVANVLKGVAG
Conditions: not given
Type of experiment: biochemical.
The compound `Cl.Cl.NCCCNCCCCCC(=O)C(F)(F)F` [IV, 7-[(3-aminopropyl)amino]-1,1,1-trifluoroheptan-2-one dihydrochloride] had a concentration for half-maximal inhibition (IC50) of 38 µM. For `CC(=O)SCC(=O)CCCCCNCCCN.Cl.Cl` [V, 7-{[(3-aminopropyl)amino]-2-oxoheptyl} thioacetate dihydrochloride], the IC50 was determined as 4000 µM. This IC50 lies about 110-fold higher than the previous one.

Still in this experiment, the particulars now being: qualitative range stated in text.
Turning to `Cl.Cl.NCCCNCCCCCS` [VIII, 5-[(3-aminopropyl)amino]pentane-1-thiol dihydrochloride], the “Inhibitory potency against APAH, IC50 range in words” value (shortened to “Inhibitory potency against APAH”) was “mid-micromolar range”. On the same count and under the same terms, next, `Cl.Cl.NCCCNCCCCCC(=O)C(F)(F)F` [IV, 7-[(3-aminopropyl)amino]-1,1,1-trifluoroheptan-2-one dihydrochloride]: “nanomolar range; also recorded: nanomolar inhibitory potency”; `Cl.Cl.NCCCNCCCCCC(=O)O` [I, 6-[(3-aminopropyl)amino]hexanoic acid dihydrochloride]: “millimolar range”. As to `CC(=O)CCCCCNCCCN.Cl.Cl` [II, 7-[(3-aminopropyl)amino]heptan-2-one dihydrochloride], the “Inhibitory potency against APAH” value is on record as “mid-micromolar range”. Same read-out and setting: next, `COCC(=O)CCCCCNCCCN.Cl.Cl` [VI, 7-[(3-aminopropyl)amino]-1-methoxyheptan-2-one dihydrochloride]: “mid-micromolar range”; `Cl.Cl.NCCCNCCCCCC(=O)NO` [III, 6-[(3-aminopropyl)amino]-N-hydroxyhexanamide dihydrochloride]: “nanomolar range; also recorded: nanomolar inhibitory potency”. As to `CC(=O)SCC(=O)CCCCCNCCCN.Cl.Cl` [V, 7-{[(3-aminopropyl)amino]-2-oxoheptyl} thioacetate dihydrochloride], the “Inhibitory potency against APAH” value is “mid-micromolar range”. `CC(=O)SCCCCCNCCCN.Cl.Cl` [VII, S-{5-[(3-aminopropyl)amino]pentyl} thioacetate dihydrochloride]: the “Inhibitory potency against APAH” value is reported as “millimolar range”. Same read-out and setting: for `Cl.Cl.NCCCNCCCCCB(O)O` [X, 5-[(3-aminopropyl)amino]pentylboronic acid dihydrochloride] the value was “mid-micromolar range”. As to `CS(=O)(=O)CCCCCNCCCN.Cl.Cl` [IX, N^1-[5-(methylsulfonyl)pentyl]propane-1,3-diamine dihydrochloride], the “Inhibitory potency against APAH” value is listed as “millimolar range”.
